# Assay results from patent publication US6352824B1, “Redox reversible bipyridyl-osmium complex conjugates” (Roche Diagnostics Corporation, priority 1998, dated 2002).
# Experiments:
# [1] = target: T1, HbAlc epitope of hemoglobin in lysed blood (Homo sapiens, UniProt P68871); test: Blood denaturing for electrochemical HbAlc immunoassay
# T1 construct: from tissue; host or cells: whole blood, lysed (freeze/thaw) and denatured
# From the text: Blood lysis is necessary to release the hemoglobin followed by denaturing to expose the HbAlc epitope. Lysis can easily be accomplished via surfactants, osmotic effects of dilution with water, and directly by many denaturants. […] Conversely, denaturing the lysed blood with a variety of known denaturants to expose the HbAlc epitope has shown significant suppression of the electrochemical response, inhibiting measurement of an HbAlc dose response.
# Denaturing the sample for antibody recognition without severely fouling the electrode surface is important for successful development of an HbAlc immunoassay. Although LiSCN has been used almost exclusively to show feasibility, it has many limitations that would hinder its use in the disposable. Citric acid, a solid at RT may offer benefits as a denaturant if it could be dried onto a strip followed by a diluent to adjust the pH to neutral. Acid or base blood denaturing followed by a final pH adjustment with a buffered diluent is an area worth further evaluation. One problem that was initially encountered was precipitation in adjusting the pH back to neutral, which can be overcome by using a different buffer or with the addition of surfactants.
# [2] = tested on: HbA0 antibody; test: Inhibition reversal with A0HB-peptide#1; type: binding
# Experimental: Mediator concentration dose response, inhibition with antibody and reversal with a BSA—Alc polyhaptan were evaluated and summarized in Table 5.
# [3] = tested on: Zymed rabbit antibodies; test: Inhibition of osmium mediator label current with antibody; type: binding
# [4] = tested on: Sheep B<HBA0>; test: as above; type: binding
# From the text: HbAlc assay requires measuring both Al c concentration and total hemoglobin concentration and reports the results as a ratio of these two measurements (%HbAlc). It is advantageous to assay both Alc and total hemoglobin using same principle because ratioing would minimize biases due to environmental effects. Thus antibody has been raised to bind specifically to hemoglobins with unglycosylated N-terminus, i.e. with an epitope sequence of Val-His-Leu-Thr(SEQ ID NO:5). Similarly, nonnative amino acid is added to the sequence to facilitate conjugation. The peptides used for total hemoglobin measurement is termed as A0 peptide. A0 peptides that have been used in the preparation of Os mediator-peptide conjugates include Val-His-Leu-Thr-Cys(SEQ ID NO:6) and Val-His-Leu-Thr-Lys(SEQ ID NO:7).
# [5] = Storage stability of osmium mediator-peptide conjugates; settings: for Stability in solution: stored as solution
# Experimental: Stability of the mediator labels were also evaluated by monitoring % inhibition values over time.
# [6] = tested on: PAB IS (polyclonal immunosorbent purified HbAlc antibody); test: Inhibition of osmium mediator label current with antibody; type: binding, sheep
# From the text: 3. Antibodies for the analytes (HbAlc and HbA0) which react specifically with the N-terminal peptides which have been incorporated into the conjugate are provided by standard methods for producing polyclonal antibodies. In this case, sheep were immunized with carrier proteins to which were conjugated the synthetic peptide sequences for HbAlc and HbA0. Following the appropriate immunization schedule, the sheep were bled, and the antibody isolated from the blood via ion exchange chromatography, followed by immunosorbent purification on a column of the same N-terminal peptide with a different linker.
# (§1) Polyclonal DE (ion-exchange) purified sheep antibody is used in the TinaQuant HbAlc assay. IS (immunosorbent) antibody is prepared using standard IS purification methodology. Samples of a monoclonal antibody were also obtained for evaluation. Inhibition curves were performed in solution with all mixing occurring in microcentrifuge tubes. Inhibition curves with the three hemoglobin Alc antibodies (PAB IS, PAB DE, and MAB) were generated by fixing OS—DSG—Alc at 5 μM and varying the antibody concentration. […] From the inhibition curves we were able to select reasonable concentrations of antibody for maximum reversal with Alc samples.
# While these feasibility studies for a HbAlc immunoassay used an enzyme mediated amplification method. […]
# [7] = tested on: PAB DE (polyclonal ion-exchange purified HbAlc antibody); test: as above; type: binding, sheep
# Experimental: as §1
# (§2) While these feasibility studies for a HbAlc immunoassay used an enzyme mediated amplification method. (Glucdor/PQQ/glucose was used to regenerate reduced mediator after oxidation at the electrode surface providing a higher diffusion controlled current is given by the cottrell equation), they are considered to be indicative of results attainable with the use of IDA electrodes with bipotentiostatic control in accordance with this invention.
# [8] = tested on: MAB (monoclonal HbAlc antibody); test: as above; type: binding
# Experimental: as §1, §2
# [9] = target: glucose oxidase (Aspergillus niger, UniProt P13006); settings: with glucose oxidase; cited from earlier work
# Chain of glucose oxidase (P13006 17-605, species assumed): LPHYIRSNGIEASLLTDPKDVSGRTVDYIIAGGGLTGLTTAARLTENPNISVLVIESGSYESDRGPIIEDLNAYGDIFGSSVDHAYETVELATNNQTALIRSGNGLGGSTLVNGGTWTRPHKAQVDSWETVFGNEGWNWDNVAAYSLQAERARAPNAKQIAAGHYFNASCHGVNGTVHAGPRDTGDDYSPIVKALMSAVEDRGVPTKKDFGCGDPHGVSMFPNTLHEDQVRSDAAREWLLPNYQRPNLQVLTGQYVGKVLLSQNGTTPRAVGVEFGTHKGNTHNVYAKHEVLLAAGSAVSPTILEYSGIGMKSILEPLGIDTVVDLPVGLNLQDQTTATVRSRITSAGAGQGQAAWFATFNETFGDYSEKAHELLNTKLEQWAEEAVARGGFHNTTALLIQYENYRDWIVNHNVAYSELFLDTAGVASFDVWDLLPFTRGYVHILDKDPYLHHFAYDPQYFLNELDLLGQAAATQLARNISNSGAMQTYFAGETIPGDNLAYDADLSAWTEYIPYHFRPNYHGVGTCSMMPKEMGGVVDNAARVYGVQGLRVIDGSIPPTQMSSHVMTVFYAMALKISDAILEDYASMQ
# T1 sequence (P68871 2-147 limits assumed): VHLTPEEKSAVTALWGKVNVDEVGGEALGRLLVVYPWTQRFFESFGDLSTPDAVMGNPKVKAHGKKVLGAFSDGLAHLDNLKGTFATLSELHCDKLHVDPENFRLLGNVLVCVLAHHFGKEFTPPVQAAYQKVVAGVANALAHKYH
compound,measurement,setting,value
N#C[S-].[Li+] [LiSCN],Blood HbAlc dose response with denatured blood,[1],able to expose the Alc epitope and minimize protein fouling enough to measure an HbAlc dose response
CC(C)CC(NC(=O)C(Cc1cnc[nH]1)NC(=O)C(N)C(C)C)C(=O)NC(C(=O)NC(CCCCNC(=O)CCCCCN1C(=O)CC(SCC(=O)NCCc2c[n+]([Os]34([Cl])([n+]5ccccc5-c5cccc[n+]53)[n+]3ccccc3-c3cccc[n+]34)c[nH]2)C1=O)C(=O)O)C(C)O (stereo not drawn) [Os-SATA-A0],Reversal,[2],No
same,Inhibition with Zymed rabbit antibodies,[3],No
same,Inhibition with Antibody Sheep B<HBA0>,[4],≤ 84%
same,Stability in solution,[5],unstable in solu-
N#C[S-].[K+] [KSCN],Blood HbAlc dose response with denatured blood,[1],Initial work did not show a dose response with KSCN
CC(C)CC(NC(=O)C(Cc1cnc[nH]1)NC(=O)C(NCC1(O)OCC(O)C(O)C1O)C(C)C)C(=O)NC(C(=O)NC(CCCCNC(=O)CCCC(=O)NCCc1c[n+]([Os]23([Cl])([n+]4ccccc4-c4cccc[n+]42)[n+]2ccccc2-c2cccc[n+]23)c[nH]1)C(=O)O)C(C)O (stereo not drawn) [Os-DSG-Alc],Inhibition with Antibody PAB IS,[6],PAB IS (≦91%)
same,Inhibition with Antibody PAB DE,[7],PAB DE (≦87%)
same,Stability in lyophilized form,[5]; lyophilized,stable
same,Stability frozen in solution,"[5]; −20° C., 40 and 80 μM",stable
same,Inhibition with Antibody MAB,[8],MAB (≦78%)
CC(C)CC(NC(=O)C(Cc1cnc[nH]1)NC(=O)C(NCC1(O)OCC(O)C(O)C1O)C(C)C)C(=O)NC(C(=O)NC(CCCCNC(=O)CCCCCN1C(=O)CC(SCC(=O)NCCc2c[n+]([Os]34([Cl])([n+]5ccccc5-c5cccc[n+]53)[n+]3ccccc3-c3cccc[n+]34)c[nH]2)C1=O)C(=O)O)C(C)O (stereo not drawn) [Os-SATA-Alc],Inhibition with Antibody PAB IS,[6],PAB IS (≦44%)
same,Stability in solution,[5],Stability similar
O=C(O)CC(O)(CC(=O)O)C(=O)O [citric acid],Blood HbAlc dose response with denatured blood,[1],able to expose the Alc epitope and minimize protein fouling enough to measure an HbAlc dose response
same,Evidence of blood denaturing,[1],Evidence of blood denaturing was seen by all: “solution
"CCCCCCCCCCCCCC[N+](C)(C)C.[Br-] [TTAB, Tetra decyltrimethyl ammonium bromide]",Evidence of blood denaturing,[1],Evidence of denaturing: “solution turned green”
O=S(=O)(O)O [Sulfuric Acid],Evidence of blood denaturing,[1],Evidence of blood denaturing was seen by all: “solution
[Na+].[OH-] [NaOH],Evidence of blood denaturing,[1],Evidence of denaturing: “solution turned brown.”
bis(bipyridyl) imidazolyl chloroosmium,mediation kinetics relative to ferricyanide,[9],about 500 times faster
[O-][Cl+3]([O-])([O-])O [Perchloric Acid],Evidence of blood denaturing,[1],Evidence of blood denaturing was seen by all: “solution
Cl [Hydrochloric Acid],Evidence of blood denaturing,[1],Evidence of blood denaturing was seen by all: “solution
